Experiments:
Experiment in all cases: Post-emergence efficacy (glasshouse)
Type in all cases: in vivo
Settings in all cases: evaluated after 13 days
[1] = system: Amaranthus retoflexus (AMARE)
Procedure: (§1) Seeds of a variety of test species (such as, for example, Solanum nigrum (SOLNI), Amaranthus retoflexus (AMARE), Setaria faberi (SETFA), Echinochloa crusgalli (ECHCG), Ipomoea hederacea (IPOHE) and Lolium perenne (LOLPE)) are sown in standard soil in pots. After 8 days cultivation (post-emergence) under controlled conditions in a glasshouse (at 24/16° C., day/night; 14 hours light; 65% humidity), the plants are sprayed with an aqueous spray solution derived from the formulation of the technical active ingredient in acetone/water (50:50) solution containing 0.5% Tween 20 (polyoxyethylene sorbitan monolaurate, CAS RN 9005-64-5). Compounds are applied at 1000 and 62.5 g/ha. The test plants are then grown under controlled conditions in a glasshouse (at 24/16° C., day/night; 14 hours light; 65% humidity) and watered twice daily. After 13 days, the test is evaluated for the percentage damage caused to the plant. The biological activities are assessed on a five point scale (5=80-100%; 4=60-79%; 3=40-59%; 2=20-39%; 1=0-19%).

[2] = system: Echinochloa crusgalli (ECHCG)
Procedure: as §1

[3] = system: Ipomoea hederacea (IPOHE)
Procedure: as §1

[4] = system: Lolium perenne (LOLPE)
Procedure: as §1

[5] = system: Setaria faberi (SETFA)
Procedure: as §1

[6] = system: Solanum nigrum (SOLNI)
Procedure: as §1

## C#CCn1c(=O)c(-c2c(Cl)ccc(Cl)c2OCc2ccccc2)c(O)c2scnc21 [Compound 1.001, 6-(2-benzyloxy-3,6-dichloro-phenyl)-7-hydroxy-4-prop-2-ynyl-thiazolo[4,5-b]pyridin-5-one]
[1]; 62.5 g/ha
  percentage damage caused to the plant, AMARE (five point scale): 5 (5=80-100%)
[1]; 1000 g/ha
  percentage damage caused to the plant, AMARE (five point scale): 5 (5=80-100%)
[2]; 62.5 g/ha
  percentage damage caused to the plant, ECHCG (five point scale): 5 (5=80-100%)
[2]; 1000 g/ha
  percentage damage caused to the plant, ECHCG (five point scale): 5 (5=80-100%)
[3]; 62.5 g/ha
  percentage damage caused to the plant, IPOHE (five point scale): 5 (5=80-100%)
[3]; 1000 g/ha
  percentage damage caused to the plant, IPOHE (five point scale): 5 (5=80-100%)
[4]; 62.5 g/ha
  percentage damage caused to the plant, LOLPE (five point scale): 5 (5=80-100%)
[4]; 1000 g/ha
  percentage damage caused to the plant, LOLPE (five point scale): 5 (5=80-100%)
[5]; 62.5 g/ha
  percentage damage caused to the plant, SETFA (five point scale): 5 (5=80-100%)
[5]; 1000 g/ha
  percentage damage caused to the plant, SETFA (five point scale): 5 (5=80-100%)
[6]; 62.5 g/ha
  percentage damage caused to the plant, SOLNI (five point scale): 5 (5=80-100%)
[6]; 1000 g/ha
  percentage damage caused to the plant, SOLNI (five point scale): 5 (5=80-100%)

## C#CCn1c(=O)c(-c2c(F)ccc(Cl)c2OCc2ccccc2)c(O)c2scnc21 [Compound 1.007]
[1]; 62.5 g/ha
  percentage damage caused to the plant, AMARE (five point scale): 5 (5=80-100%)
[1]; 1000 g/ha
  percentage damage caused to the plant, AMARE (five point scale): 5 (5=80-100%)
[2]; 62.5 g/ha
  percentage damage caused to the plant, ECHCG (five point scale): 5 (5=80-100%)
[2]; 1000 g/ha
  percentage damage caused to the plant, ECHCG (five point scale): 5 (5=80-100%)
[3]; 62.5 g/ha
  percentage damage caused to the plant, IPOHE (five point scale): 5 (5=80-100%)
[3]; 1000 g/ha
  percentage damage caused to the plant, IPOHE (five point scale): 5 (5=80-100%)
[4]; 62.5 g/ha
  percentage damage caused to the plant, LOLPE (five point scale): 5 (5=80-100%)
[4]; 1000 g/ha
  percentage damage caused to the plant, LOLPE (five point scale): 5 (5=80-100%)
[5]; 62.5 g/ha
  percentage damage caused to the plant, SETFA (five point scale): 5 (5=80-100%)
[5]; 1000 g/ha
  percentage damage caused to the plant, SETFA (five point scale): 5 (5=80-100%)
[6]; 62.5 g/ha
  percentage damage caused to the plant, SOLNI (five point scale): 5 (5=80-100%)
[6]; 1000 g/ha
  percentage damage caused to the plant, SOLNI (five point scale): 5 (5=80-100%)

## C#CCn1c(=O)c(-c2c(C(F)(F)F)ccc(Cl)c2OCc2ccccc2)c(O)c2scnc21 [Compound 1.009]
[1]; 62.5 g/ha
  percentage damage caused to the plant, AMARE (five point scale): 5 (5=80-100%)
[1]; 1000 g/ha
  percentage damage caused to the plant, AMARE (five point scale): 5 (5=80-100%)
[2]; 62.5 g/ha
  percentage damage caused to the plant, ECHCG (five point scale): 5 (5=80-100%)
[2]; 1000 g/ha
  percentage damage caused to the plant, ECHCG (five point scale): 5 (5=80-100%)
[3]; 62.5 g/ha
  percentage damage caused to the plant, IPOHE (five point scale): 5 (5=80-100%)
[3]; 1000 g/ha
  percentage damage caused to the plant, IPOHE (five point scale): 5 (5=80-100%)
[4]; 62.5 g/ha
  percentage damage caused to the plant, LOLPE (five point scale): 5 (5=80-100%)
[4]; 1000 g/ha
  percentage damage caused to the plant, LOLPE (five point scale): 5 (5=80-100%)
[5]; 62.5 g/ha
  percentage damage caused to the plant, SETFA (five point scale): 5 (5=80-100%)
[5]; 1000 g/ha
  percentage damage caused to the plant, SETFA (five point scale): 5 (5=80-100%)
[6]; 62.5 g/ha
  percentage damage caused to the plant, SOLNI (five point scale): 5 (5=80-100%)
[6]; 1000 g/ha
  percentage damage caused to the plant, SOLNI (five point scale): 5 (5=80-100%)

## Cn1c(=O)c(-c2c(Cl)ccc(Cl)c2OCc2ccccc2)c(O)c2scnc21 [Compound 1.011]
[1]; 62.5 g/ha
  percentage damage caused to the plant, AMARE (five point scale): 4 (4=60-79%)
[1]; 1000 g/ha
  percentage damage caused to the plant, AMARE (five point scale): 5 (5=80-100%)
[2]; 62.5 g/ha
  percentage damage caused to the plant, ECHCG (five point scale): 3 (3=40-59%)
[2]; 1000 g/ha
  percentage damage caused to the plant, ECHCG (five point scale): 5 (5=80-100%)
[3]; 62.5 g/ha
  percentage damage caused to the plant, IPOHE (five point scale): 5 (5=80-100%)
[3]; 1000 g/ha
  percentage damage caused to the plant, IPOHE (five point scale): 5 (5=80-100%)
[4]; 62.5 g/ha
  percentage damage caused to the plant, LOLPE (five point scale): 2 (2=20-39%)
[4]; 1000 g/ha
  percentage damage caused to the plant, LOLPE (five point scale): 5 (5=80-100%)
[5]; 62.5 g/ha
  percentage damage caused to the plant, SETFA (five point scale): 2 (2=20-39%)
[5]; 1000 g/ha
  percentage damage caused to the plant, SETFA (five point scale): 5 (5=80-100%)
[6]; 62.5 g/ha
  percentage damage caused to the plant, SOLNI (five point scale): 5 (5=80-100%)
[6]; 1000 g/ha
  percentage damage caused to the plant, SOLNI (five point scale): 5 (5=80-100%)

— patent US20170347654A1, “Herbicidal Compounds” (SYNGENTA PARTICIPATIONS AG, priority 2014, published 2017)
